Reference: patent US11891387B2, “Monoacylglycerol lipase modulators” (Janssen Pharmaceutica NV, priority 2020, dated 2024)

Biological target: human MGL from HeLa cells (Homo sapiens (Human), UniProt Q99685)
Test: MGL in vitro activity assay: cleavage of [glycerol-1,3-3H]-oleyl glycerol, activated carbon filtration
Assay type: biochemical
Conditions: 300 nM [Glycerol-1,3-3H]-oleyl glycerol, endogenously expressed MGL from HeLa cells, one hour incubation
Method: The assay used to measure the in vitro activity of MGL is adapted from the assay used for another serine hydrolase (FAAH) described in Wilson et al., 2003 (A high-throughput-compatible assay for determining the activity of fatty acid amide hydrolase. Wilson S J, Lovenberg T W, Barbier A J. Anal Biochem. 2003 Jul. 15; 318(2):270-5.). The assay consists of combining endogenously expressed MGL from HeLa cells with test compounds, adding [glycerol-1,3-^3H]-oleyl glycerol, incubating for one hour, and then measuring the amount of cleaved [1,3-^3H]-glycerol that passes through an activated carbon filter. The amount of cleaved, tritiated glycerol passing through the carbon filter is proportional to the activity of the MGL enzyme in a particular well/test condition.
Standard conditions for this assay combine 300 nM [Glycerol-1,3-^3H]-oleyl glycerol with human MGL from HeLa cells and test compounds for one hour, after which the reaction is filtered through activated carbon and tritium is measured in the flow through. The test compound concentration in screening mode is 10 μM, while the highest compound concentration in IC50 assays is determined empirically. MGL is the predominant hydrolase in HeLa cells/cell homogenates.

Sequence of human MGL from HeLa cells (Q99685 whole entry): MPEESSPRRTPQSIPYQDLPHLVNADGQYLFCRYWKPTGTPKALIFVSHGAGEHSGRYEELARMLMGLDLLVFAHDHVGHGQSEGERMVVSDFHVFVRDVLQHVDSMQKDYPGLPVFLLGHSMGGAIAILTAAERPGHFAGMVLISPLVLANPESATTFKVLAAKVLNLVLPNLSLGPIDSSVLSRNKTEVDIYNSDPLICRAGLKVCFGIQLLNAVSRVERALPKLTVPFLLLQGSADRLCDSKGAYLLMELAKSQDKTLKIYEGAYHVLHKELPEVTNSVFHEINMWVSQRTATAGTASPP

| Structure (SMILES) | IC50 [µM] |
| --- | --- |
| Cc1ccc(C(=O)N2[C@@H]3CCC[C@H]2c2nn(C)c(-c4cc(C)nn4C)c2C3)c(F)c1 (stereo in doubt) [Example 72, ((5R,9S)-3-(1,3-Dimethyl-1H-pyrazol-5-yl)-2-methyl-4,5,6,7,8,9-hexahydro-2H-5,9-epiminocycloocta[c]pyrazol-10-yl)(2-fluoro-4-methylphenyl)methanone] | 1.13 |
| COc1cccc(C(=O)N2[C@@H]3CCC[C@H]2c2nn(C)c(-c4cc(C)nn4C)c2C3)c1C (stereo in doubt) [Example 73, ((5R,9S)-3-(1,3-Dimethyl-1H-pyrazol-5-yl)-2-methyl-4,5,6,7,8,9-hexahydro-2H-5,9-epiminocycloocta[c]pyrazol-10-yl)(3-methoxy-2-methylphenyl)methanone] | 0.23 |
| COc1cccc(C(=O)N2[C@@H]3CCC[C@H]2c2nn(C)c(-c4cc(C(F)(F)F)nn4C)c2C3)c1C (stereo in doubt) [Example 74, (3-Methoxy-2-methylphenyl)((5R,9S)-2-methyl-3-(1-methyl-3-(trifluoromethyl)-1H-pyrazol-5-yl)-4,5,6,7,8,9-hexahydro-2H-5,9-epiminocycloocta[c]pyrazol-10-yl)methanone] | 0.019 |
| Cn1nc(C(F)(F)F)cc1-c1c2c(nn1C)[C@@H]1CCC[C@H](C2)N1C(=O)c1ccc2c(c1)OCCC2 (stereo in doubt) [Example 75, Chroman-7-yl((5R,9S)-2-methyl-3-(1-methyl-3-(trifluoromethyl)-1H-pyrazol-5-yl)-4,5,6,7,8,9-hexahydro-2H-5,9-epiminocycloocta[c]pyrazol-10-yl)methanone] | 0.044 |
| Cc1cccc(C(=O)N2[C@@H]3CCC[C@H]2c2nn(C)c(-c4cc(C(F)(F)F)nn4C)c2C3)c1 (stereo in doubt) [Example 76, ((5R,9S)-2-Methyl-3-(1-methyl-3-(trifluoromethyl)-1H-pyrazol-5-yl)-4,5,6,7,8,9-hexahydro-2H-5,9-epiminocycloocta[c]pyrazol-10-yl)(m-tolyl)methanone] | 0.068 |
| COc1cc(C)cc(C(=O)N2[C@@H]3CCC[C@H]2c2nn(C)c(-c4cc(C(F)(F)F)nn4C)c2C3)c1 (stereo in doubt) [Example 77, (3-Methoxy-5-methylphenyl)((5R,9S)-2-methyl-3-(1-methyl-3-(trifluoromethyl)-1H-pyrazol-5-yl)-4,5,6,7,8,9-hexahydro-2H-5,9-epiminocycloocta[c]pyrazol-10-yl)methanone] | 0.026 |
| Cc1ccc2c(C(=O)N3CCc4c(nn(C)c4-c4cc(C(F)(F)F)nn4C)[C@@H]3C)cccc2n1 [Example 1, (S)-(2,7-Dimethyl-3-(1-methyl-3-(trifluoromethyl)-1H-pyrazol-5-yl)-2,4,5,7-tetrahydro-6H-pyrazolo[3,4-c]pyridin-6-yl)(2-methylquinolin-5-yl)methanone] | 0.035 |
| COc1cccc(C(=O)N2CCc3c(nn(C)c3-c3c(C)cnn3C)[C@@H]2C)c1C [Example 2, (S)-(3-(1,4-Dimethyl-1H-pyrazol-5-yl)-2,7-dimethyl-2,4,5,7-tetrahydro-6H-pyrazolo[3,4-c]pyridin-6-yl)(3-methoxy-2-methylphenyl)methanone] | 10 |
| COc1cccc(C(=O)N2CCc3c(nn(C)c3-c3c(C(F)(F)F)nn(C)c3C)[C@@H]2C)c1C [Example 3, (S)-(3-(1,5-Dimethyl-3-(trifluoromethyl)-1H-pyrazol-4-yl)-2,7-dimethyl-2,4,5,7-tetrahydro-6H-pyrazolo[3,4-c]pyridin-6-yl)(3-methoxy-2-methylphenyl)methanone] | 6.7 |
| C[C@H]1c2nn(C)c(-c3cc(C(F)(F)F)nn3C)c2CCN1C(=O)c1cccc(N2CC3(COC3)C2)c1Cl [Example 4, (S)-(2-Chloro-3-(2-oxa-6-azaspiro[3.3]heptan-6-yl)phenyl)(2,7-dimethyl-3-(1-methyl-3-(trifluoromethyl)-1H-pyrazol-5-yl)-2,4,5,7-tetrahydro-6H-pyrazolo[3,4-c]pyridin-6-yl)methanone] | 0.02 |
| C[C@H]1c2nn(C)c(-c3cc(C(F)(F)F)nn3C)c2CCN1C(=O)c1c[nH]c2cccc(F)c12 [Example 5, (S)-(2,7-dimethyl-3-(1-methyl-3-(trifluoromethyl)-1H-pyrazol-5-yl)-2,4,5,7-tetrahydro-6H-pyrazolo[3,4-c]pyridin-6-yl)(4-fluoro-1H-indol-3-yl)methanone] | 0.037 |
| C[C@H]1c2nn(C)c(-c3cc(C(F)(F)F)nn3C)c2CCN1C(=O)c1nn(C)c2ccccc12 [Example 6, (S)-(2,7-Dimethyl-3-(1-methyl-3-(trifluoromethyl)-1H-pyrazol-5-yl)-2,4,5,7-tetrahydro-6H-pyrazolo[3,4-c]pyridin-6-yl)(1-methyl-1H-indazol-3-yl)methanone] | 0.037 |

Second part, the compound after the results:

| IC50 [µM] | Structure (SMILES) |
| --- | --- |
| 0.05 | Cc1cccn2ncc(C(=O)N3CCc4c(nn(C)c4-c4cc(C(F)(F)F)nn4C)[C@@H]3C)c12 [Example 7, (S)-(2,7-Dimethyl-3-(1-methyl-3-(trifluoromethyl)-1H-pyrazol-5-yl)-2,4,5,7-tetrahydro-6H-pyrazolo[3,4-c]pyridin-6-yl)(4-methylpyrazolo[1,5-a]pyridin-3-yl)methanone] |
| 0.0089 | Cc1cccc2ncc(C(=O)N3CCc4c(nn(C)c4-c4cc(C(F)(F)F)nn4C)[C@@H]3C)n12 [Example 8, (S)-(2,7-Dimethyl-3-(1-methyl-3-(trifluoromethyl)-1H-pyrazol-5-yl)-2,4,5,7-tetrahydro-6H-pyrazolo[3,4-c]pyridin-6-yl)(5-methylimidazo[1,2-a]pyridin-3-yl)methanone] |
| 0.012 | Cc1cc(C(=O)N2CCc3c(nn(C)c3-c3cc(C(F)(F)F)nn3C)[C@@H]2C)c2ccccc2n1 [Example 9, (S)-(2,7-Dimethyl-3-(1-methyl-3-(trifluoromethyl)-1H-pyrazol-5-yl)-2,4,5,7-tetrahydro-6H-pyrazolo[3,4-c]pyridin-6-yl)(2-methylquinolin-4-yl)methanone] |
| 0.018 | Cc1cc(C(=O)N2CCc3c(nn(C)c3-c3cc(C(F)(F)F)nn3C)[C@@H]2C)c2cc(F)ccc2n1 [Example 10, (S)-(2,7-Dimethyl-3-(1-methyl-3-(trifluoromethyl)-1H-pyrazol-5-yl)-2,4,5,7-tetrahydro-6H-pyrazolo[3,4-c]pyridin-6-yl)(6-fluoro-2-methylquinolin-4-yl)methanone] |
| 0.0062 | C[C@H]1c2nn(C)c(-c3cc(C(F)(F)F)nn3C)c2CCN1C(=O)c1cnn2cccc(F)c12 [Example 11, (S)-(2,7-Dimethyl-3-(1-methyl-3-(trifluoromethyl)-1H-pyrazol-5-yl)-2,4,5,7-tetrahydro-6H-pyrazolo[3,4-c]pyridin-6-yl)(4-fluoropyrazolo[1,5-a]pyridin-3-yl)methanone] |
| 0.1 | C[C@H]1c2nn(C)c(-c3cc(C(F)(F)F)nn3C)c2CCN1C(=O)c1ccnc2c1ccn2CC(F)(F)F [Example 12, (S)-(2,7-Dimethyl-3-(1-methyl-3-(trifluoromethyl)-1H-pyrazol-5-yl)-2,4,5,7-tetrahydro-6H-pyrazolo[3,4-c]pyridin-6-yl)(1-(2,2,2-trifluoroethyl)-1H-pyrrolo[2,3-b]pyridin-4-yl)methanone] |
| 0.22 | Cc1nc2ccccc2cc1C(=O)N1CCc2c(nn(C)c2-c2cc(C(F)(F)F)nn2C)[C@@H]1C [Example 13, (S)-(2,7-Dimethyl-3-(1-methyl-3-(trifluoromethyl)-1H-pyrazol-5-yl)-2,4,5,7-tetrahydro-6H-pyrazolo[3,4-c]pyridin-6-yl)(2-methylquinolin-3-yl)methanone] |
| 0.015 | COc1ccc(C(=O)N2CCc3c(nn(C)c3-c3cc(C(F)(F)F)nn3C)[C@@H]2C)c2cccnc12 [Example 14, (S)-(2,7-Dimethyl-3-(1-methyl-3-(trifluoromethyl)-1H-pyrazol-5-yl)-2,4,5,7-tetrahydro-6H-pyrazolo[3,4-c]pyridin-6-yl)(8-methoxyquinolin-5-yl)methanone] |
| 0.056 | Cc1cc(C(=O)N2CCc3c(nn(C)c3-c3cc(C(F)(F)F)nn3C)[C@@H]2C)c2cnn(C)c2n1 [Example 15, (S)-(1,6-Dimethyl-1H-pyrazolo[3,4-b]pyridin-4-yl)(2,7-dimethyl-3-(1-methyl-3-(trifluoromethyl)-1H-pyrazol-5-yl)-2,4,5,7-tetrahydro-6H-pyrazolo[3,4-c]pyridin-6-yl)methanone] |
| 0.37 | COc1nn(C)cc1-c1c2c(nn1C)[C@H](C)N(C(=O)c1ccc3ncccc3c1)CC2 [Example 16, (S)-(3-(3-Methoxy-1-methyl-1H-pyrazol-4-yl)-2,7-dimethyl-2,4,5,7-tetrahydro-6H-pyrazolo[3,4-c]pyridin-6-yl)(quinolin-6-yl)methanone] |
| 0.02 | C[C@H]1c2nn(C)c(-c3cc(C(F)(F)F)nn3C)c2CCN1C(=O)c1cnn2cc(F)cc(F)c12 [Example 17, (S)-(4,6-Difluoropyrazolo[1,5-a]pyridin-3-yl)(2,7-dimethyl-3-(1-methyl-3-(trifluoromethyl)-1H-pyrazol-5-yl)-2,4,5,7-tetrahydro-6H-pyrazolo[3,4-c]pyridin-6-yl)methanone] |
| 0.36 | C[C@H]1c2nn(C)c(-c3cc(C(F)(F)F)nn3C)c2CCN1C(=O)c1cnc2cc(F)cc(F)c2c1 [Example 18, (S)-(5,7-Difluoroquinolin-3-yl)(2,7-dimethyl-3-(1-methyl-3-(trifluoromethyl)-1H-pyrazol-5-yl)-2,4,5,7-tetrahydro-6H-pyrazolo[3,4-c]pyridin-6-yl)methanone] |
